# Experimental data taken from patent US20250049928A1, “ANESTHETIC PRODRUGS AND DERIVATIVES THEREOF FOR PROLONGED SENSORY SELECTIVE NERVE BLOCKAGE” (The Board of Trustees of The University of Alabama, priority 2023, published 2025).
# Where “and” joins values, the source holds several entries; their conditions need not be identical. Identical values can stand only once. Entries after “also recorded” stand apart in the source; their conditions may differ. Like-named read-outs stand apart in the source and are kept apart here.
# How the values were obtained:
# sciatic nerve [1] = experiment: Rat sciatic nerve block: nociceptive axon blockade (hotplate thermal latency); type: in vivo, Sprague-Dawley rats
# GLUT1 = GLUT1 (Homo sapiens, UniProt P11166); conditions: cited from earlier work
# Chain of GLUT1 (P11166 whole entry, species assumed): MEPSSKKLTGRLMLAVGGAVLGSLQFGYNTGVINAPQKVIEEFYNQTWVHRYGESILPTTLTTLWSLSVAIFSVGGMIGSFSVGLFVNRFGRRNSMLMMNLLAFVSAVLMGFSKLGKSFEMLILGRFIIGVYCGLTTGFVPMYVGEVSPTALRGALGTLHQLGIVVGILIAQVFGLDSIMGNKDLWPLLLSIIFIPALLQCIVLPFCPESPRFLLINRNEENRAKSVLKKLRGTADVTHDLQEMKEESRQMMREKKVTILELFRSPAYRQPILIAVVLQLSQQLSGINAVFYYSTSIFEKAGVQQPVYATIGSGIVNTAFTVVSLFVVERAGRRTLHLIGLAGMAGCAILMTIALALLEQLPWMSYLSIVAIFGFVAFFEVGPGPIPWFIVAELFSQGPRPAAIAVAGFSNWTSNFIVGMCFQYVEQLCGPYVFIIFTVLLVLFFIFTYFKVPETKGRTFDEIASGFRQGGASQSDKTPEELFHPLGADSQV
# sciatic nerve [2] = experiment: Rat sciatic nerve block: motor axon blockade (weight-bearing test); type: in vivo, Sprague-Dawley rats
# rats [3] = conditions: rat, in vivo
# [4] = system: sciatic nerves and surrounding tissues; conditions: rat, in vivo
# [5] = system: Esterase (from porcine liver); conditions: pig
# rats [6] = conditions: rat, in vivo; remark: listed apart in the source
# Log P = conditions: octanol/water
# sciatic nerve [7] = conditions: rat, in vivo
# GLUT3 = GLUT3 (Homo sapiens, UniProt P11169); conditions: read-out: Km for GLUT3; cited from earlier work
# Chain of GLUT3 (P11169 whole entry, species assumed): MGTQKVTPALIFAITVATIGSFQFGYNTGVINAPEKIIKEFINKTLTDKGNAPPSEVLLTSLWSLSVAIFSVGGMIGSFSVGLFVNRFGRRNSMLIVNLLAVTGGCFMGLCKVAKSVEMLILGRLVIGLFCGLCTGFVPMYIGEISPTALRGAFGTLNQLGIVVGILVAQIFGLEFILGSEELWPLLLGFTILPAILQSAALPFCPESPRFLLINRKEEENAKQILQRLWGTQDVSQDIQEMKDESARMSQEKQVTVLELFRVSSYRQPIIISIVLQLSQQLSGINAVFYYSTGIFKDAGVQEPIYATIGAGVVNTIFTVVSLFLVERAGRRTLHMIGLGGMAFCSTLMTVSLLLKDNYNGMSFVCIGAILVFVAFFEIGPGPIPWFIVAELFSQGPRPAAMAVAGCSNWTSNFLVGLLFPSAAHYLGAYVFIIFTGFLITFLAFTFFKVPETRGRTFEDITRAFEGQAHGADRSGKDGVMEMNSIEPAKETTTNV
# [8] = read-out: Km (transporter protein affinity for sugar molecules)
molecule,measurement,setting,value
glycine-capsaicin prodrug [Gly-CAP prodrug],duration of nociceptive axon blockade,"sciatic nerve [1]; rat, in vivo",17.33 ± 11.55 h
same,successful nociceptive axon blockade,"sciatic nerve [1]; rat, in vivo",100%
"O=C1O[C@H]([C@@H](O)CO)C(=O)C1=O [DHA, dehydroascorbic acid]",Km,GLUT1; [8],1.1 mM
galactose-capsaicin prodrug,change of nociceptive axon block duration with increasing glucose dose,"sciatic nerve [1]; rat, in vivo",decrease in nociceptive axon block duration; also recorded: significant decrease
same,duration of nociceptive axon blockade,"sciatic nerve [1]; rat, in vivo",150.0 ± 76.8 h and 234 ± 36 h
same,successful analgesic block (thermal paw withdrawal latencies >7 seconds),"sciatic nerve [1]; rat, in vivo",100%
same,motor deficits in the injected hind limb,"sciatic nerve [2]; rat, in vivo",did not produce any motor deficits
same,"capsaicin-related side effects (spontaneous pain behavior, contralateral block, irreversible block, seizure, acute respiratory distress)",rats [3],did not cause any capsaicin-related side effects
same,appearance of surrounding tissues at dissection,[4],did not appear edematous or discolored
same,microscopic examination for myotoxicity or inflammation,[4],did not reveal significant myotoxicity or inflammation
same,toluidine blue stained sciatic nerve sections,[4],normal in appearance without evidence of demyelination or axonal degeneration
galacturonic acid-capsaicin prodrug [GalA-CAP prodrug],change of nociceptive axon block duration with increasing glucose dose,"sciatic nerve [1]; rat, in vivo",significantly reduced with increasing glucose dose
same,duration of nociceptive axon blockade,"sciatic nerve [1]; rat, in vivo",150.0 ± 76.8 h and 234 ± 37 h and 150 ± 76.84 h
same,successful analgesic block (thermal paw withdrawal latencies >7 seconds),"sciatic nerve [1]; rat, in vivo",100%
same,time to restoration of full thermal stimulus sensitivity (return to baseline thermal latency),"sciatic nerve [1]; rat, in vivo",13 days
same,motor deficits in the injected hind limb,"sciatic nerve [2]; rat, in vivo",did not produce any motor deficits
same,"capsaicin-related side effects (spontaneous pain behavior, contralateral block, irreversible block, seizure, acute respiratory distress)",rats [3],did not cause any capsaicin-related side effects
same,seizures observed (systemic toxicity),rats [3],2 out of 4
same,Myotoxicity Score (median; range 0-6),[4],0
same,appearance of surrounding tissues at dissection,[4],did not appear edematous or discolored
same,"myotoxicity score, median for all groups",[4],0
same,unmyelinated C-fibers / axon diameter by TEM,[4],not significantly increased
same,Half-lives,[5],<10 min
same,frequency of licking within 5 minutes after injection,rats [6],1±0 times
same,total duration of licking behavior,rats [6],4.28 ± 5.81 s
COc1cc(CNC(=O)CCCC/C=C/C(C)C)ccc1O [capsaicin],successful analgesic block (thermal paw withdrawal latencies >7 seconds),sciatic nerve [1]; injection doses above 3.28 μmol,100%
same,successful analgesic block (thermal paw withdrawal latencies >7 seconds),"sciatic nerve [1]; injection doses above 1 mg, 0.3 mL at left sciatic nerve",100%
same,duration of nociceptive axon block,sciatic nerve [1]; injection of 6.56 μmol,4.0 ± 2.0 h
same,duration of nociceptive axon blockade,sciatic nerve [1]; single injection of 2 mg in 0.3 mL at sciatic nerve,4 ± 2 h
same,duration of nociceptive axon blockade,sciatic nerve [1]; single injection of 3 mg in 0.3 mL at sciatic nerve,30 ± 12 h
same,motor deficits in the injected hind limb,sciatic nerve [2]; 0.5-3 mg in 0.3 mL at sciatic nerve,did not produce any motor deficits
same,motor deficits in the injected hind limb,"sciatic nerve [2]; Example 4, doses in μmol, 0.3 mL PBS",did not produce any motor deficits
same,rats that developed acute respiratory distress,"rats [3]; male, Sprague-Dawley",75%
same,rats that developed contralateral nociceptive axon block,"rats [3]; male, Sprague-Dawley",50%
same,rats that experienced a seizure,"rats [3]; male, Sprague-Dawley",25%
same,rats with irreversible nociceptive axon blockade in the injected hind limb,"rats [3]; male, Sprague-Dawley",25%
same,rats exhibiting at least one systemic adverse effect,rats [3],all rats
same,logP,Log P,3.66
glucuronic acid-linked bupivacaine [GluA-Bup],mean duration of sensory block,"sciatic nerve [1]; rat, in vivo",13.0 ± 2.58 h
same,mean duration of sensory blockade,"sciatic nerve [1]; rat, in vivo",3.75 ± 0.50 h
same,sensory block success,"sciatic nerve [1]; rat, in vivo",100%
same,successful sensory blockade,"sciatic nerve [1]; rat, in vivo",100%
same,duration of motor deficits / motor involvement,"sciatic nerve [2]; rat, in vivo",1.625 ± 0.25 h
same,motor deficits,"sciatic nerve [2]; rat, in vivo",without any motor deficits
"COc1cc(CNC(=O)CCCC/C=C/C(C)C)ccc1OC[C@H]1OC(O)[C@H](O)[C@@H](O)[C@H]1O (stereo partly shown) [Gal-CAP prodrug, galactose-capsaicin prodrug]",frequency of licking within 5 minutes after injection,rats [6],1±1.41 times
same,total duration of licking behavior,rats [6],4.55 ± 5.77 s
N[C@H]1C(O)O[C@H](CO)[C@@H](O)[C@@H]1O (stereo partly shown) [glucosamine],Km,GLUT1; [8],2.5 mM
galactosamine-fluorescein [Gal-FL],mean fluorescent intensity in epineurium/perineurium and inside the nerve,sciatic nerve [7],significantly higher
O=C[C@H](O)[C@@H](O)[C@@H](O)[C@H](O)CO [galactose],Km,GLUT1; [8],15 mM
same,Km,GLUT1; read-out: Km for GLUT1,17 mM
same,Km,GLUT3,8.5 mM
"CCCCN1CCCCC1C(=O)Nc1c(C)cccc1C (stereo not shown) [bupivacaine, reference compound]",successful sensory blockade,sciatic nerve [1]; 8.65 mM in 0.3 mL PBS,failed to achieve a successful block
same,mean duration of sensory block,sciatic nerve [1]; 17.3 mM in 0.3 mL PBS,1.75 ± 0.29 h
same,sensory block success,sciatic nerve [1]; 17.3 mM in 0.3 mL PBS,100%
same,duration of motor deficits / motor involvement,sciatic nerve [2]; 17.3 mM in 0.3 mL PBS,1.375 ± 0.48 h
